Source: patent US9266870B2 (TAISHO PHARMACEUTICAL CO., LTD., priority 2012, dated 2016)
Where two headings read alike, the source gives them in different places.

Legend:
[1] = target: human orexin-1 receptor (hOX1R) (Homo sapiens (Human), UniProt O43613); test: Measurement of orexin antagonistic activity (intracellular Ca2+ fluorescence, FDSS), hOX1R; type: cell-based; details: ligand peptide (modified human orexin-A) 300 pM, maximum fluorescence intensity
Procedure: (§1) Chinese hamster ovary (CHO) cells forcibly expressing the hOX1R and hOX2R were seeded into a 96 well Black clear bottom plate (Nunc) at 20,000 cells per well, which were cultured in Ham's F-12 medium containing 0.1 mM MEM non-essential amino acids, 0.5 mg/ml G418, 10% fetal bovine serum (all by Invitrogen) for 16 hours under the conditions of 37° C., 5% CO2. After removing the medium, 100 μL of 0.5 μM Fluo-4AM ester (Dojin) in an assay buffer (25 mM HEPES (Dojin), Hank's balanced salt solution (Invitrogen), 0.1% bovine serum albumin, 2.5 mM probenecid, 200 μg/ml Amaranth (all by Sigma-Aldrich), pH 7.4) was added and the cells were incubated for 60 minutes at 37° C., 5% CO2. After removing the assay buffer containing fluo-3AM ester, the test compound was dissolved in dimethyl sulfoxide to be 10 mM and diluted with the assay buffer, 150 μL of which was added and incubated for 30 minutes.
(§2) The reaction was measured for the fluorescence intensity of each well every second for 3 minutes using Functional Drug Screening System (FDSS; Hamamatsu Photonics K.K.), and the antagonistic activity was determined using the maximum fluorescence intensity as the indicator of intracellular Ca2+ concentration.

[2] = target: human orexin-2 receptor (hOX2R) (Homo sapiens (Human), UniProt O43614); test: Measurement of orexin antagonistic activity (intracellular Ca2+ fluorescence, FDSS), hOX2R; type: cell-based
Chain of human orexin-2 receptor (hOX2R) (O43614 whole entry): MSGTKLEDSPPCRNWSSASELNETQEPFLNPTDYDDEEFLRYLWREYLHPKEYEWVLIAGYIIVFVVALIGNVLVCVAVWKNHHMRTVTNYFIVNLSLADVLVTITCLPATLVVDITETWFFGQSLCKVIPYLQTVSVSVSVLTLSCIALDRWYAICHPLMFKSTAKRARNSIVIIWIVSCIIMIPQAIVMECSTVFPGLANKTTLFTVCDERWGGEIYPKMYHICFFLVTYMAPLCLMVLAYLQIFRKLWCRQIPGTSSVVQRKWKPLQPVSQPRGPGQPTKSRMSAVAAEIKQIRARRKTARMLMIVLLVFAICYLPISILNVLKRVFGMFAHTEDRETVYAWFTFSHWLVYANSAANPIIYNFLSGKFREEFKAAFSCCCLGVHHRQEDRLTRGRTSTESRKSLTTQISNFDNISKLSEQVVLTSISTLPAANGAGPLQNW
Procedure: as §1, with “The antagonistic activities of the test compounds on human orexin-1 receptor (hOX1R) and orexin-2 receptor (hOX2R) were measured by modifying from the method described in literature (Toshikatsu Okumura et al., Biochemical and Biophysical Research Communications 280, 976-981, 2001). Chinese” for “Chinese”
as §2

[3] = CHO cells forcibly expressing hOX1R, read-out: IC50 Value OX1
[4] = CHO cells forcibly expressing hOX2R, ligand peptide (modified human orexin-A) 3 nM, maximum fluorescence intensity, read-out: IC50 Value OX2

Chain of human orexin-1 receptor (hOX1R) (O43613 whole entry): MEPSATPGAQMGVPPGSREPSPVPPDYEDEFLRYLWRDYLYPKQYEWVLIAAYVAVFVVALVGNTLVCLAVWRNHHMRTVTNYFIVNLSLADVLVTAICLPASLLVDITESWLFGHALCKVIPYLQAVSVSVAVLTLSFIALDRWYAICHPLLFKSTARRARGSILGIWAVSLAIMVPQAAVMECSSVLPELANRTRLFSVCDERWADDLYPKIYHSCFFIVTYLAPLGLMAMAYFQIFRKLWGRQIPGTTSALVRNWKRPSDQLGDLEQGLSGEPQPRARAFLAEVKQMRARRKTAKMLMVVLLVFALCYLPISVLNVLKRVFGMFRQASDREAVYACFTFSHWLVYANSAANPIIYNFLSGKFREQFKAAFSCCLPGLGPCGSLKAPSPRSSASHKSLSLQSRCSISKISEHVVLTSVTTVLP

SMILES | IC50 [1, 3] [nM] | IC50 [2, 4] [nM] | IC50 ([1]; IC50 Value OX1, CHO cells forcibly expressing hOX1R) [nM] | IC50 [2] [nM]
Cc1ccc(-c2ncccn2)c(C(=O)N2CCCOC2Cc2noc(-c3ccc(F)cn3)n2)c1 (racemic) [Example 33, (±)-(2-[[5-(5-fluoropyridin-2-yl)-1,2,4-oxadiazol-3-yl]methyl]-1,3-oxazinan-3-yl) [5-methyl-2-(pyrimidin-2-yl)phenyl]methanone] | 3590 | 4540 | – | –
Cc1ccc(-c2ncccn2)c(C(=O)N2CCCOC2Cc2cnn(-c3ccc(F)cn3)c2)c1 (racemic) [Example 42, (±)-[2-[[1-(5-fluoropyridin-2-yl)-1H-pyrazol-4-yl]methyl]-1,3-oxazinan-3-yl] [5-methyl-2-(pyrimidin-2-yl)phenyl]methanone] | 17.2 | 20.4 | – | –
Cc1ccc(-n2nccn2)c(C(=O)N2CCOC2Cn2cc(-c3ccc(F)cn3)cn2)c1 (single isomer, unassigned; (-)) [Example 2, (−)-(2-[[4-(5-fluoropyridin-2-yl)-1H-pyrazol-1-yl]-methyl]-1,3-oxazolidin-3-yl)[5-methyl-2-(2H-1,2,3-triazol-2-yl)phenyl] methanone] | 14.3 | 18.6 | – | –
Cc1ccc(-n2nccn2)c(C(=O)N2CCCOC2Cn2ccc(-c3ccc(F)cn3)n2)c1 (single isomer, unassigned; (-)) [Example 3, (−)-(2-[[3-(5-fluoropyridin-2-yl)-1H-pyrazol-1-yl]-methyl]-1,3-oxazinan-3-yl)[5-methyl-2-(2H-1,2,3-triazol-2-yl)phenyl] methanone] | – | – | 0.7 | 1.2
Cc1ccc(-n2nccn2)c(C(=O)N2CCOC2Cn2ccc(-c3ccc(F)cc3)n2)n1 (single isomer, unassigned; (-)) [Example 26, (−)-(2-[[3-(4-fluorophenyl)-1H-pyrazol-1-yl]methyl]-1,3-oxazolidin-3-yl) [6-methyl-3-(2H-1,2,3-triazol-2-yl)pyridin-2-yl] methanone] | 21.7 | 59.1 | – | –
Cc1ccc(-n2nccn2)c(C(=O)N2CCCOC2Cn2cc(-c3ccc(F)cc3)cn2)n1 (single isomer, unassigned; (-)) [Example 31, (−)-(2-[[4-(4-fluorophenyl)-1H-pyrazol-1-yl]methyl]-1,3-oxazinan-3-yl) [6-methyl-3-(2H-l,2,3-triazol-2-yl)pyridin-2-yl] methanone] | 10.9 | 7.3 | – | –
Cc1ccc(-c2ncccn2)c(C(=O)N2CCCOC2Cn2cc(-c3ccc(F)cc3)cn2)n1 (single isomer, unassigned; (-)) [Example 32, (−)-(2-[[4-(4-fluorophenyl)-1H-pyrazol-1-yl]methyl]-l,3-oxazinan-3-yl)[6-methyl-3-(pyrimidin-2-yl)pyridin-2-yl] methanone] | 34.4 | 22.6 | – | –
Cc1ccc(-n2nccn2)c(C(=O)N2CCCOC2Cc2noc(-c3ccc(F)cn3)n2)c1 (single isomer, unassigned; (-)) [Example 36, (−)-[2-[[5-(5-fluoropyridin-2-yl)-1,2,4-oxadiazol-3-yl]methyl]-1,3-oxazinan-3-yl] [5-methyl-2-(2H-1,2,3-triazol-2-yl)phenyl] methanone] | 3.8 | 6.9 | – | –
Cc1ccc(-n2nccn2)c(C(=O)N2CCOC2Cc2cnn(-c3ccc(F)cn3)c2)c1 (single isomer, unassigned; (-)) [Example 46, (−)-[2-{[1-(5-Fluoropyridin-2-yl)-1H-pyrazol-4-yl]methyl}-1,3-oxazolidin-3-yl][5-methyl-2-(2H-1,2,3-triazol-2-yl)phenyl]methanone] | 31.9 | 38.7 | – | –
Cc1ccc(-n2nccn2)c(C(=O)N2[C@H](C)CO[C@H]2Cn2cc(-c3ccc(F)cn3)cn2)c1 [Example 8, [(2S,4R)-2-[[4-(5-fluoropyridin-2-yl)-1H-pyrazol-1-yl]-methyl]-4-methyl-1,3-oxazolidin-3-yl] [5-methyl-2-(2H-1,2,3-triazol-2-yl)phenyl] methanone] | 60.9 | 460 | – | –
Cc1ccc(-n2nccn2)c(C(=O)N2[C@H](Cn3cc(-c4ccc(F)cn4)cn3)OC[C@@H]2C)c1 [Example 10, (−)-[(2S,4S)-2-[[4-(5-fluoropyridin-2-yl)-1H-pyrazol-1-yl]methyl]-4-methyl-1,3-oxazolidin-3-yl] [5-methyl-2-(2H-1,2,3-triazol-2-yl)phenyl] methanone] | 201 | 273 | – | –
Cc1ccc(-n2nccn2)c(C(=O)N2[C@H](Cn3cc(-c4ccc(F)cn4)cn3)OCC[C@@H]2C)c1 [Example 39, [(2S,4S)-2-{[4-(5-Fluoropyridin-2-yl)-1H-pyrazol-1-yl]methyl}-4-methyl-1,3-oxazinan-3-yl}[5-methyl-2-(2H-1,2,3-triazol-2-yl)phenyl]methanone] | 81.2 | 46.6 | – | –

Continued, in another order:

IC50 [1, 3] [nM] | IC50 [2, 4] [nM] | SMILES | IC50 ([1]; IC50 Value OX1, CHO cells forcibly expressing hOX1R) [nM] | IC50 [2] [nM]
0.9 | 3 | Cc1ccc(-n2nccn2)c(C(=O)N2CCCOC2Cn2ccc(-c3ccc(F)cc3)n2)n1 (single isomer, unassigned; (-)) [Example 27, (−)-(2-[[3-(4-fluorophenyl)-1H-pyrazol-1-yl]methyl]-1,3-oxazinan-3-yl)[6-methyl-3-(2H-1,2,3-triazol-2-yl)pyridin-2-yl]methanone] | – | –
2.4 | 4 | Cc1ccc(-c2ncccn2)c(C(=O)N2CCCOC2Cn2ccc(-c3ccc(F)cc3)n2)n1 (single isomer, unassigned; (-)) [Example 28, (−)-(2-[[3-(4-fluorophenyl)-1H-pyrazol-1-yl]methyl]-1,3-oxazinan-3-yl)[6-methyl-3-(pyrimidin-2-yl)pyridin-2-yl] methanone] | – | –
3.2 | 1.2 | O=C(c1cc(F)ccc1-n1nccn1)N1CCCOC1Cn1ccc(-c2ccc(F)cn2)n1 (single isomer, unassigned; (-)) [Example 29, (−)-(2-[[3-(5-fluoropyridin-2-yl)-1H-pyrazol-1-yl]methyl]-1,3-oxazinan-3-yl)[5-fluoro-2-(2H-1,2,3-triazol-2-yl)phenyl]methanone] | – | –
2.6 | 3 | Cc1ccc(-c2ncccn2)c(C(=O)N2CCCOC2Cn2ccc(-c3ccc(F)cn3)n2)c1 (single isomer, unassigned; (-)) [Example 30] | – | –
2.2 | 6.2 | O=C(c1cc(F)ccc1-c1ncccn1)N1CCCOC1Cn1ccc(-c2ccc(F)cn2)n1 (single isomer, unassigned; (-)) [Example 34, (−)-[2-[[3-(5-fluoropyridin-2-yl)-1H-pyrazol-1-yl]methyl]-l,3-oxazinan-3-yl] [5-fluoro-2-(pyrimidin-2-yl)phenyl]methanone] | – | –
1.1 | 1.7 | Cc1ccc(-n2nccn2)c(C(=O)N2CCCOC2Cc2noc(-c3ccc(F)cc3)n2)c1 (single isomer, unassigned; (-)) [Example 37, (−)-[2-[[5-(4-fluorophenyl)-1,2,4-oxadiazol-3-yl]methyl]-1,3-oxazinan-3-yl] [5-methyl-2-(2H-1,2,3-triazol-2-yl)phenyl] methanone] | – | –
2.1 | 7.3 | Cc1ccc(-n2nccn2)c(C(=O)N2CCCOC2Cc2noc(-c3ccc(F)cc3)n2)n1 (single isomer, unassigned; (-)) [Example 38, (−)-[2-[[5-(4-fluorophenyl)-1,2,4-oxadiazol-3-yl]methyl]-1,3-oxazinan-3-yl] [6-methyl-3-(2H-1,2,3-triazol-2-yl)pyridin-2-yl] methanone] | – | –
1 | 1 | Cc1ccc(-c2ncccn2)c(C(=O)N2CCCOC2Cn2ccc(-c3ccc(F)cc3)n2)c1 (single isomer, unassigned; (-)) [Example 41, (−)-[2-{[3-(4-Fluorophenyl)-1H-pyrazol-1-yl]methyl}-1,3-oxazinan-3-yl][5-methyl-2-(pyrimidin-2-yl)phenyl]methanone] | – | –
2.7 | 12.1 | Cc1ccc(-n2nccn2)c(C(=O)N2CCOC2Cc2ccn(-c3ccc(F)cn3)n2)c1 (single isomer, unassigned; (-)) [Example 45, (−)-[2-{[1-(5-Fluoropyridin-2-yl)-1H-pyrazol-3-yl]methyl}-1,3-oxazolidin-3-yl][5-methyl-2-(2H-1,2,3-triazol-2-yl)phenyl]methanone] | – | –
